From patent US8710061B2, “Compounds for the reduction of β-amyloid production” (Bristol-Myers Squibb Company, priority 2011, dated 2014)
Like-named read-outs stand apart in the source and are kept apart here.

Test system: Aβ42 production in H4 APP751 SWE clone 8.20 cells
Assay: Cellular assay for inhibition of Aβ1-42 production
Type: cell-based
Conditions: 19 h incubation
Method: Cellular Assays for Inhibition of Aβ1-40 and Aβ1-42 Production
H4 cells stably transfected with APP751 containing the Swedish mutation (H4 APP751 SWE clone 8.20, developed at BMS) were maintained in log phase through twice weekly passage at a 1:20 split. […] Following incubation for 19 h in 5% CO2 at 37° C., plates were briefly centrifuged (1000 rpm, 5 min). A 10 μl aliquot from each well was transferred to a second assay plate (Costar 3709) for Aβ40 measurements. Antibody cocktails were freshly prepared by dilution into 40 mM Tris-HCl (pH 7.4) with 0.2% BSA and added to assay plates. For Aβ42 measurements, antibodies specific for the Aβ42 neoepitope (565, developed at BMS; conjugated to the Wallac reagent (Perkin Elmer)) and the N-terminal sequence of Aβ peptide (26D6, developed at SIBIA; conjugated to […] (Perkin Elmer)) were mixed and 20 μl of the mixture was added to each well of the incubated cell plate yielding a final concentration of 0.8 ng/well 565 and 75 ng/well 26D6. For the Aβ40 measurements, antibodies specific for the Aβ40 neoepitope (TSD, developed at BMS; conjugated to the Wallac reagent (Perkin Elmer)) and 26D6 as described above were mixed and 20 μl of the mixture was added to the 10 μl aliquots which had been removed previously from the cell plate yielding a final concentration of 1.6 ng/well TSD and 17.5 ng/well 26D6. Assay plates containing antibodies were sealed with aluminum foil and incubated overnight at 4° C. Signal was determined using a Viewlux counter (Perkin Elmer) and IC50 values determined using curve fitting in CurveMaster (Excel Fit based).

[1] = read-out: Activity Rating (Aβ42 cellular IC50), class symbol
[2] = read-out: Activity Rating (Aβ42 cellular IC50), given as number

IC50 [1] | IC50 [2] | Structure (SMILES)
10 to 100 nM |  | CNc1nc(Nc2ccc(C#N)c(OC)c2)nc2c1CCC2c1cccc(OC)c1 (racemic) [Example 7, 2-methoxy-4-(7-(3-methoxyphenyl)-4-(methylamino)-6,7-dihydro-5H-cyclopenta[d]pyrimidin-2-ylamino)benzonitrile]
 | 13 nM | CNc1nc(Nc2ccc(C#N)c(OC)c2)nc2c1CC[C@H]2c1ccccc1OC (single isomer, unassigned) [Example 1A]
1.5 to 9.9 nM |  | CNc1nc(Nc2ccc(C#N)c(OC)c2)nc2c1CC[C@H]2c1ccccc1Cl (single isomer, unassigned) [Example 3A]
10 to 100 nM |  | CNc1nc(Nc2ccc(C#N)c(OC)c2)nc2c1CC[C@H]2c1ccccc1F (single isomer, unassigned) [Example 4A]
10 to 100 nM |  | CNc1nc(Nc2ccc(C#N)c(OC)c2)nc2c1CC[C@@H]2c1ccccc1OC [Example 1B, (R)-2-methoxy-4-(7-(2-methoxyphenyl)-4-(methylamino)-6,7-dihydro-5H-cyclopenta[d]pyrimidin-2-ylamino)benzonitrile]

Further lines, the compound ahead of its results:

Structure (SMILES) | IC50 [1] | IC50 [2]
CNc1nc(Nc2ccc(C#N)c(OC)c2)nc2c1CC[C@H]2c1c(F)cc(F)cc1F (single isomer, unassigned) [Example 5A] |  | 11 nM
CNc1nc(Nc2ccc(C#N)c(OC)c2)nc2c1CC[C@H]2c1ccc(Cl)cc1F (single isomer, unassigned) [Example 6A] | 10 to 100 nM | 
CNc1nc(Nc2ccc(C#N)c(OC)c2)nc2c1CC[C@@]2(C)c1ccc(F)cc1 [Example 2A, (S)-4-(7-(4-fluorophenyl)-7-methyl-4-(methylamino)-6,7-dihydro-5H-cyclopenta[d]pyrimidin-2-ylamino)-2-methoxybenzonitrile] |  | 200 nM
CNc1nc(Nc2ccc(C#N)c(OC)c2)nc2c1CC[C@]2(C)c1ccc(F)cc1 [Example 2B, (R)-4-(7-(4-fluorophenyl)-7-methyl-4-(methylamino)-6,7-dihydro-5H-cyclopenta[d]pyrimidin-2-ylamino)-2-methoxybenzonitrile] | 100 to 1000 nM | 
CNc1nc(Nc2ccc(C#N)c(OC)c2)nc2c1CCC2c1ccc(C(F)(F)F)cc1F (centres unmarked) [Example 8, 4-(7-(2-fluoro-4-(trifluoromethyl)phenyl)-4-(methylamino)-6,7-dihydro-5H-cyclopenta[d]pyrimidin-2-ylamino)-2-methoxybenzonitrile] | 10 to 100 nM | 
CNc1nc(Nc2ccc(C#N)c(OC)c2)nc2c1CCC2c1ccc(OC(F)(F)F)cc1F (centres unmarked) [Example 9, 4-(7-(2-fluoro-4-(trifluoromethoxy)phenyl)-4-(methylamino)-6,7-dihydro-5H-cyclopenta[d]pyrimidin-2-ylamino)-2-methoxybenzonitrile] |  | 12 nM
